According to US9957264B2 (Merck Sharp & Dohme Corp., priority 2013, dated 2018):

Key:
[1] = target: JAK2 (recombinant purified GST-tagged catalytic domain) (Homo sapiens (Human), UniProt O60674); assay: Jak Biochemical HTRF Assay (JAK2); settings: [ATP] 8.5 μM
[2] = target: JAK1 (recombinant purified GST-tagged catalytic domain) (Homo sapiens (Human), UniProt P23458); assay: Jak Biochemical HTRF Assay (JAK1); settings: [ATP] 31.8 μM
Outline: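 Under a 120 min room-temperature, ATP-initiated reaction, peptide phosphorylation was detected by Eu-pY20/streptavidin-Dylight 650 HTRF after EDTA stop. IC50 values derive from percent inhibition curves.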

Sequence of JAK2 (recombinant purified GST-tagged catalytic domain) (O60674 849-1124): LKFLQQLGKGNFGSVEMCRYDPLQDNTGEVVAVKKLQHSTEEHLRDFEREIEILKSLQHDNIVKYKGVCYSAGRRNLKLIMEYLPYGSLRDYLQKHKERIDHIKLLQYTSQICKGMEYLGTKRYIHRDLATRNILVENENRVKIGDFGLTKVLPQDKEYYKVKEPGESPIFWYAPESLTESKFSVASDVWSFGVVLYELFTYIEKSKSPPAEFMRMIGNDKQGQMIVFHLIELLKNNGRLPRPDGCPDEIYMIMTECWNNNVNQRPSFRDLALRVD
Sequence of JAK1 (recombinant purified GST-tagged catalytic domain) (P23458 875-1153): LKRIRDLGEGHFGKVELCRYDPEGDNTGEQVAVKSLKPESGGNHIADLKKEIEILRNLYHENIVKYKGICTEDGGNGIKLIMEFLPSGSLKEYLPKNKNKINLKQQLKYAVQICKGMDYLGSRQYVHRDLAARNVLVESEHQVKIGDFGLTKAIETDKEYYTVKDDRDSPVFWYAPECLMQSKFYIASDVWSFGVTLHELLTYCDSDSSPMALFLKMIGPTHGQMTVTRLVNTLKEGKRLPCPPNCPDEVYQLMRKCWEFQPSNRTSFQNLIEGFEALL

| IC50 [1] | IC50 [2] | Structure (SMILES) |
| --- | --- | --- |
| 0.24 nM | 0.15 nM | CC(C)(C)OC(=O)[C@@H]1CC[C@@](CC#N)(n2nc(Nc3ccc(C4(C(F)(F)F)CCNC4)cc3)c3c(=O)[nH]ccc32)CO1 (single isomer, unassigned) [Example 5-284, (2S,5S)-tert-butyl 5-(cyanomethyl)-5-(4-oxo-3-((4-((R or S)-3-(trifluoromethyl)pyrrolidin-3-yl)phenyl)amino)-4,5-dihydro-1H-pyrazolo[4,3-c]pyridin-1-yl)tetrahydro-2H-pyran-2-carboxylate] |
| 0.48 nM | 0.11 nM | CN(C)C(=O)c1ccc2cc(Nc3nn([C@]4(CC#N)CC[C@@H](C(=O)OC(C)(C)C)OC4)c4cc[nH]c(=O)c34)ccc2n1 [Example 5-238, (2S,5S)-tert-butyl 5-(cyanomethyl)-5-(3-((2-(dimethylcarbamoyl)quinolin-6-yl)amino)-4-oxo-4,5-dihydro-1H-pyrazolo[4,3-c]pyridin-1-yl)tetrahydro-2H-pyran-2-carboxylate] |
| 0.14 nM | 0.17 nM | CC(C)NC(C)(C)c1ccc(Nc2nn([C@@]3(CC#N)CCN(C(=O)OC(C)(C)C)C[C@H]3F)c3cc[nH]c(=O)c23)cc1 [Example 5-273, tert-butyl (3R,4R)-4-(cyanomethyl)-3-fluoro-4-{3-[(4-{1-methyl-1-[(1-methylethyl)amino]ethyl}phenyl)amino]-4-oxo-4,5-dihydro-1H-pyrazolo[4,3-c]pyridin-1-yl}piperidine-1-carboxylate] |
| 5.87 nM | 0.09 nM | COC1CN([C@H]2CC[C@](CC#N)(n3nc(Nc4ccc(Cl)c(F)c4)c4c(=O)[nH]ccc43)CC2)C1 [Example 18-24, Trans 2-(1-(3-((4-chloro-3-fluorophenyl)amino)-4-oxo-4,5-dihydro-1H-pyrazolo[4,3-c]pyridin-1-yl)-4-(3-methoxyazetidin-1-yl)cyclohexyl)acetonitrile] |
| > 1500 nM | 20.5 nM | N#CC[C@]1(n2nc(Nc3ccc(Cl)c(F)c3)c3c(=O)[nH]ccc32)CC[C@@H](NC2CCCCC2)CC1 [Example 18-22, Cis 2-(1-(3-((4-chloro-3-fluorophenyl)amino)-4-oxo-4,5-dihydro-1H-pyrazolo[4,3-c]pyridin-1-yl)-4-(cyclohexylamino)cyclohexyl)acetonitrile] |
| 8.62 nM | 2.32 nM | CN(C)S(=O)(=O)c1ccc(Nc2nn(C3(CC#N)CCN(Cc4ccc(C(F)(F)F)cc4)CC3)c3cc[nH]c(=O)c23)cc1 [Example 8-3, 4-[(1-{4-(cyanomethyl)-1-[4-(trifluoromethyl)benzyl]piperidin-4-yl}-4-oxo-4,5-dihydro-1H-pyrazolo[4,3-c]pyridin-3-yl)amino]-N,N-dimethylbenzenesulfonamide] |
| > 1500 nM | 52.2 nM | N#CC[C@]1(n2nc(Nc3ccc(OC(F)(F)F)cc3)c3c(=O)[nH]ccc32)CC[C@@H](NC2CCCCC2)CC1 [Example 18-20, Cis 2-(4-(cyclohexylamino)-1-(4-oxo-3-((4-(trifluoromethoxy)phenyl)amino)-4,5-dihydro-1H-pyrazolo[4,3-c]pyridin-1-yl)cyclohexyl)acetonitrile] |
| 0.29 nM | 0.19 nM | CN(C)S(=O)(=O)c1ccc(Nc2nn(C3(CC#N)CCN(Cc4c(F)cccc4F)CC3)c3cc[nH]c(=O)c23)cc1 [Example 8-10, 4-({1-[4-(cyanomethyl)-1-(2,6-difluorobenzyl)piperidin-4-yl]-4-oxo-4,5-dihydro-1H-pyrazolo[4,3-c]pyridin-3-yl}amino)-N,N-dimethylbenzenesulfonamide] |
| 2.24 nM | 0.11 nM | CC(C)(C)N1Cc2cc(Nc3nn([C@@]4(CC#N)CCOC4)c4cc[nH]c(=O)c34)ccc2S1(=O)=O (single isomer, unassigned) [Example 5-247, (S or R)-2-(3-(3-((2-(tert-butyl)-1,1-dioxido-2,3-dihydrobenzo[d]isothiazol-5-yl)amino)-4-oxo-4,5-dihydro-1H-pyrazolo[4,3-c]pyridin-1-yl)tetrahydrofuran-3-yl)acetonitrile] |
| 0.33 nM | 0.24 nM | CC(C)(C)OC(=O)[C@@H]1CC[C@@](CC#N)(n2nc(Nc3ccc(C4(C(F)(F)F)CCCCN4)cc3)c3c(=O)[nH]ccc32)CO1 (single isomer, unassigned) [Example 5-286, (2S,5S)-tert-butyl 5-(cyanomethyl)-5-(4-oxo-3-((4-((S or R)-2-(trifluoromethyl)piperidin-2-yl)phenyl)amino)-4,5-dihydro-1H-pyrazolo[4,3-c]pyridin-1-yl)tetrahydro-2H-pyran-2-carboxylate] |

The next lines start with the compound.

| Structure (SMILES) | IC50 [1] | IC50 [2] |
| --- | --- | --- |
| CC(C)(C)OC(=O)[C@@H]1CC[C@@](CC#N)(n2nc(Nc3ccc(S(C)(=O)=O)cc3)c3c(=O)[nH]ccc32)CO1 (racemic) [Example 5-36, (2S,5S and 2R,5R)-tert-butyl 5-(cyanomethyl)-5-(3-((4-(methylsulfonyl)phenyl)amino)-4-oxo-4,5-dihydro-1H-pyrazolo[4,3-c]pyridin-1-yl)tetrahydro-2H-pyran-2-carboxylate] | 0.34 nM | 0.09 nM |
| CC(C)(C)OC(=O)[C@@H]1CC[C@@](CC#N)(n2nc(Nc3ccc(S(=O)(=O)C(C)(C)C)cc3)c3c(=O)[nH]ccc32)CO1 [Example 5-235, (2S,5S)-tert-butyl 5-(3-((4-(tert-butylsulfonyl)phenyl)amino)-4-oxo-4,5-dihydro-1H-pyrazolo[4,3-c]pyridin-1-yl)-5-(cyanomethyl) tetrahydro-2H-pyran-2-carboxylate] | 0.21 nM | 0.14 nM |
| CC1CCN1S(=O)(=O)c1ccc(Nc2nn([C@]3(CC#N)CCCOC3)c3cc[nH]c(=O)c23)cc1 (single isomer, unassigned) [Example 5-108, [(3S)-3-{3-[(4-{[(2R or 2S)-2-methylazetidin-1-yl]sulfonyl}phenyl)amino]-4-oxo-4,5-dihydro-1H-pyrazolo[4,3-c]pyridin-1-yl}tetrahydro-2H-pyran-3-yl]acetonitrile] | 0.23 nM | 0.12 nM |
| CC(C)(C)OC(=O)N1CCC(CC#N)(n2nc(Nc3ccc(S(=O)(=O)C(F)(F)F)cc3)c3c(=O)[nH]ccc32)CC1 [Example 5-76, tert-butyl 4-(cyanomethyl)-4-[4-oxo-3-({4-[(trifluoromethyl)sulfonyl]phenyl}amino)-4,5-dihydro-1H-pyrazolo [4,3-c]pyridin-1-yl] piperidine-1-carboxylate] | 7.89 nM | 0.9 nM |
| CC(C)(C)OC(=O)[C@@H]1CC[C@@](CC#N)(n2nc(Nc3cnc4ccccc4c3)c3c(=O)[nH]ccc32)CO1 [Example 5-221, (2S,5S)-tert-butyl 5-(cyanomethyl)-5-(4-oxo-3-(quinolin-3-ylamino)-4,5-dihydro-1H-pyrazolo[4,3-c]pyridin-1-yl)tetrahydro-2H-pyran-2-carboxylate] | 5.29 nM | 0.35 nM |
| CC(C)(C)OC(=O)N1CCC(CC#N)(n2nc(Nc3ccc([C@H](O)C(F)(F)F)cc3)c3c(=O)[nH]ccc32)CC1 (single isomer, unassigned) [Example 5-2, tert-butyl 4-(cyanomethyl)-4-[4-oxo-3-({4-[(1S or 1R)-2,2,2-trifluoro-1-hydroxyethyl]phenyl}amino)-4,5-dihydro-1H-pyrazolo[4,3-c]pyridin-1-yl]piperidine-1-carboxylate] | 0.44 nM | 0.21 nM |
| COC(=O)N1CCC(CC#N)(n2nc(Nc3ccc(C(C)(O)C(F)(F)F)cc3)c3c(=O)[nH]ccc32)CC1 (single isomer, unassigned) [Example 5-142, (R or S)-methyl 4-(cyanomethyl)-4-(4-oxo-3-((4-(1,1,1-trifluoro-2-hydroxypropan-2-yl)phenyl)amino)-4,5-dihydro-1H-pyrazolo[4,3-c]pyridin-1-yl)piperidine-1-carboxylate] | 0.33 nM | 0.13 nM |
| CC(C)(C)OC(=O)[C@@H]1CC[C@@](CC#N)(n2nc(Nc3ccc4c(c3)CC(C)(C)C4(O)C(F)(F)F)c3c(=O)[nH]ccc32)CO1 (single isomer, unassigned) [Example 5-164, (2S,5S)-tert-butyl 5-(cyanomethyl)-5-(3-(((S or R)-1-hydroxy-2,2-dimethyl-1-(trifluoromethyl)-2,3-dihydro-1H-inden-5-yl)amino)-4-oxo-4,5-dihydro-1H-pyrazolo[4,3-c]pyridin-1-yl)tetrahydro-2H-pyran-2-carboxylate] | 0.68 nM | 0.59 nM |
| CC(C)(C)NC(c1ccc(Nc2nn([C@]3(CC#N)CC[C@@H](C(=O)OC(C)(C)C)OC3)c3cc[nH]c(=O)c23)cc1)C(F)(F)F (single isomer, unassigned) [Example 5-194, (2S,5S)-tert-butyl 5-(3-((4-((R or S)-1-(tert-butylamino)-2,2,2-trifluoroethyl)phenyl)amino)-4-oxo-4,5-dihydro-1H-pyrazolo [4,3-c]pyridin-1-yl)-5-(cyanomethyl)tetrahydro-2H-pyran-2-carboxylate] | 0.82 nM | 0.52 nM |
| CC(C)(C)OC(=O)N1CC(CC#N)(n2nc(Nc3ccccc3)c3c(=O)[nH]ccc32)C1 [Example 1-1, tert-butyl 3-(cyanomethyl)-3-(4-oxo-3-(phenylamino)-4,5-dihydro-1H-pyrazolo[4,3-c]pyridin-1-yl)azetidine-1-carboxylate] | 25 nM | 2.23 nM |
| CC(C)(C)OC(=O)N1CC(CC#N)(n2nc(Nc3ccc(F)cc3)c3c(=O)[nH]ccc32)C1 [Example 4-3, tert-butyl 3-(cyanomethyl)-3-(3-((4-fluorophenyl)amino)-4-oxo-4,5-dihydro-1H-pyrazolo[4,3-c]pyridin-1-yl)azetidine-1-carboxylate] | 36 nM | 2.64 nM |
